Experimental findings from patent US10932465B2, “Antimicrobial mixture containing 4-(3-ethoxy-4-hydroxyphenyl)butan-2-one and a diol, and cosmetic composition containing same” (L'OREAL, priority 2017, dated 2021) are described below.

For assay [1], the system named is Aspergillus niger ATCC 6275. As to the kind of experiment: MIC / microbial growth test, 96-well microplate, optical density at 620 nm, with FIC index. The class given is cell-based. An excerpt:
FIC Index=([…]) with: • MICa with B: minimum concentration of product A in the combination A+B which makes it possible to obtain an inhibitory effect • MICb with A: minimum concentration of product B in the combination A+B which makes it possible to obtain an inhibitory effect. • MICa: minimum inhibitory concentration of product A alone. • MICb: minimum inhibitory concentration of product B alone. […] As regards the combinations tested, MICa with b and MICb with a are the respective concentrations of A and of B in the combinations which make it possible to obtain a microbial growth percentage of less than or equal to 25%. When the FIC index value is less than or equal to 1, it is considered that the combination of test compounds has a synergistic effect. The combinations of compounds A and B were tested on the following strains: Aspergillus niger and Candida albicans. […] A 96-well microplate and an incubation temperature of 32.5° C. are used. The incubation time of the microplate is: • from 24 hours to 48 hours aerobically for Aspergillus niger, • from 18 hours to 24 hours aerobically for Candida albicans. A 10% (weight/volume) stock solution was prepared by mixing 1 g of compound in 9 ml of aqueous 1%o agar solution. […] 50 μL of each of the daughter solutions obtained containing compound A or B1 or B2 are added to the microplate wells. 100 μL of Sabouraud liquid nutrient broth seeded with the strain Aspergillus niger and 50 μL of aqueous 1%o agar solution are also added thereto. 50 μL of each of the daughter solutions obtained containing compound A and 50 μL of each of the daughter solutions obtained containing compound B1 or B2 are added to the microplate wells. 100 μL of Sabouraud liquid nutrient broth seeded at double concentration with the strain Aspergillus niger are also added thereto. A positive microbial growth control was also prepared. […] This control corresponds to 100 μL of double concentration sterile Sabouraud liquid nutrient broth+100 μL of double concentration compound A or B1 or B2. […] In the two cases (test and control), the inoculum represents the concentration of the strain Aspergillus niger present in the final volume of the wells (200 μL) and is between 2 and 6×10^5 cfu/ml of Aspergillus niger.

In assay [2] the test system is Candida albicans ATCC 10231. Described as above. The class given is cell-based. From the text:
FIC Index=([…]) with: • MICa with B: minimum concentration of product A in the combination A+B which makes it possible to obtain an inhibitory effect • MICb with A: minimum concentration of product B in the combination A+B which makes it possible to obtain an inhibitory effect. • MICa: minimum inhibitory concentration of product A alone. • MICb: minimum inhibitory concentration of product B alone. […] As regards the combinations tested, MICa with b and MICb with a are the respective concentrations of A and of B in the combinations which make it possible to obtain a microbial growth percentage of less than or equal to 25%. When the FIC index value is less than or equal to 1, it is considered that the combination of test compounds has a synergistic effect. The combinations of compounds A and B were tested on the following strains: Aspergillus niger and Candida albicans. […] A 96-well microplate and an incubation temperature of 32.5° C. are used. The incubation time of the microplate is: • from 24 hours to 48 hours aerobically for Aspergillus niger, • from 18 hours to 24 hours aerobically for Candida albicans. A 10% (weight/volume) stock solution was prepared by mixing 1 g of compound in 9 ml of aqueous 1%o agar solution. […] 50 μL of each of the daughter solutions obtained containing compound A or B1 or B2 are added to the microplate wells. 100 μL of Sabouraud liquid nutrient broth seeded with the strain Aspergillus niger and 50 μL of aqueous 1%o agar solution are also added thereto. 50 μL of each of the daughter solutions obtained containing compound A and 50 μL of each of the daughter solutions obtained containing compound B1 or B2 are added to the microplate wells. 100 μL of Sabouraud liquid nutrient broth seeded at double concentration with the strain Aspergillus niger are also added thereto. A positive microbial growth control was also prepared. […] This control corresponds to 100 μL of double concentration sterile Sabouraud liquid nutrient broth+100 μL of double concentration compound A or B1 or B2.

[3] abbreviates: Aspergillus niger, growth <= 25%.
Where [4] appears, read: Candida albicans, growth <= 25%.

Counter-ions that a name gives are not always drawn.

For `N=C(NCCCCCCNC(=N)NC(=N)Nc1ccc(Cl)cc1)NC(=N)Nc1ccc(Cl)cc1.O=C(O)[C@H](O)[C@@H](O)[C@H](O)[C@H](O)CO.O=C(O)[C@H](O)[C@@H](O)[C@H](O)[C@H](O)CO` [B1, chlorhexidine digluconate, reference compound], the microbial growth percentage came to 98% in assay [1] (0 A + 0.0025 B1 (weight %)); 98% in assay [1] (0 A + 0.005 B1 (weight %)); 7% in assay [1] (0 A + 0.01 B1 (weight %)); 59% in assay [2] (0 A + 0.00025 B1 (weight %)); 32% in assay [2] (0 A + 0.0005 B1 (weight %)); 3% in assay [2] (0 A + 0.001 B1 (weight %)). For the same compound, the “% MIC of B1 alone” value in assay [1] (setting [3]) amounted to 0.01%; in assay [2] (setting [4]), 0.001%.

For the compound `[H]/N=C(\N/C(=N/[H])NCCCCCCNC(=N)NC(=N)Nc1ccc(Cl)cc1)Nc1ccc(Cl)cc1` [B2, chlorhexidine hydrochloride, reference compound], the microbial growth percentage in assay [1] (0 A + 0.025 B2 (weight %)) was 194%; in assay [1] (0 A + 0.05 B2 (weight %)), 121%; in assay [1] (0 A + 0.1 B2 (weight %)), 137%; in assay [1] (0 A + 0.2 B2 (weight %)), 2%; in assay [2] (0 A + 0.00025 B2 (weight %)), 82%; in assay [2] (0 A + 0.0005 B2 (weight %)) it was 64%. In addition, the microbial growth percentage in assay [2] (0 A + 0.001 B2 (weight %)) was 14%. The “% MIC of B2 alone” value in assay [1] (setting [3]) turned out to be 0.02%; in assay [2] (setting [4]), 0.001%.

`CCOc1cc(CCC(C)=O)ccc1O` [A, 4-(3-ethoxy-4-hydroxyphenyl)butan-2-one]: the microbial growth percentage in assay [1] (0.025 A + 0 B2 (weight %)) amounted to 228%; in assay [1] (0.05 A + 0 B2 (weight %)) it was 109%; in assay [1] (0.0625 A + 0 B1 (weight %)), 83%; in assay [1] (0.0625 A + 0 B3 (weight %)), 85%; in assay [1] (0.1 A + 0 B2 (weight %)) it was 73%; in assay [1] (0.125 A + 0 B1 (weight %)), 49%. In addition, the microbial growth percentage in assay [1] (0.125 A + 0 B3 (weight %)) is reported as 48%; in assay [1] (0.2 A + 0 B2 (weight %)), 72%; in assay [1] (0.25 A + 0 B1 (weight %)) it was 5%; in assay [1] (0.25 A + 0 B3 (weight %)) it was 7%; in assay [1] (0.4 A + 0 B2 (weight %)), 6%; in assay [2] (0.025 A + 0 B1 (weight %)) it was 63%. The microbial growth percentage in assay [2] (0.025 A + 0 B2 (weight %)) was determined as 83%; in assay [2] (0.05 A + 0 B1 (weight %)), 47%; in assay [2] (0.05 A + 0 B2 (weight %)), 70%; in assay [2] (0.1 A + 0 B1 (weight %)) it was 22%; in assay [2] (0.1 A + 0 B2 (weight %)) it was 50%; in assay [2] (0.2 A + 0 B2 (weight %)), 10%. Further, the “% MIC of A alone” value in assay [1] (Aspergillus niger, series with B1, growth <= 25%) is listed as 0.25%; in assay [1] (Aspergillus niger, series with B2, growth <= 25%), 0.4%; in assay [1] (Aspergillus niger, series with B3, growth <= 25%) it was 0.25%; in assay [2] (Candida albicans, series with B1, growth <= 25%) it was 0.1%.
